According to patent publication US8399412B2, “Method of treating or preventing tissue deterioration, injury or damage due to periodontal disease or disease of oral mucosa, and/or downregulating NF-kappabeta or supressing NF-kappabeta-mediated actions” (priority 2006, dated 2013):

Assays:
IL-8 = assay: TNFα-induced IL-8 secretion by gingival fibroblasts (ELISA); assay type: cell-based, Human; conditions: for secreted IL-8 versus fibroblasts not treated with Tβ4: gingival fibroblasts, 20 ng/ml TNF alpha
Method: Human gingival Fb grown to 80% confluence, serum-starved, pretreated with Tb4 for one hour then with 20 ng/ml TNFa±Tb4 for 24 hours. […] of conditioned medium was used for ELISA. After removing medium, cells are fixed, stained, and lysed. OD 550 nm readings are used to normalize ELISA data for total cell number. Media control values were negligible and are not shown.
Human gingival fibroblasts (HGF-1, ATCC) were stimulated with TNFα (20 ng/ml), a potent pro-inflammatory cytokine widely used in in vitro models of inflammation.

gingival fibroblasts = assay: APOPercentage apoptosis assay in TNF-α stimulated gingival fibroblasts; assay type: cell-based, Human; conditions: TNF-α 20 ng/ml, 8 hours, 0.01 ug/ml Tβ4, p=0.0004
Method: It is well documented that proteases from oral bacteria such as P. gingivalis can induce death in different cell types in vitro, including fibroblasts, epithelial cells, and endothelial cells. Apoptosis can also be induced as a component of the inflammatory response.
The fibroblasts were then assayed using the APOPercentage assay (Accurate Chemical, Westbury, N.Y.), which detects changes in cell membrane phospholipids. […] The absorbance of released dye can be measured and correlated to the relative amount of apoptosis in the culture. […] There were a greater number of apoptotic cells in fibroblasts stimulated with TNFα compared to cells stimulated with TNFα and also treated with Tβ4.

NFκB [1] = assay: NFκB activity assay in TNF-α stimulated non-transformed human corneal epithelial cells (HCEC); assay type: cell-based; conditions: non-transformed human corneal epithelial culture, Tβ4 treatment, results not shown
Method: Non-transformed human corneal epithelial cells (HCEC) at passage 3 were purchased from Cascade Biologics (Portland, Oreg.). […] HCEC were used for experiments at passage 4. The transformed human corneal epithelial cell line 10.014 pRSV-T (HCET) was additionally used in this study. HCET were maintained in serum-free KGM on tissue culture plastic coated with a fibronectin-collagen type I matrix. Cells were cultured in a standard tissue culture incubator at 37° C. and in an atmosphere of 5% CO2 and 95% room air with medium changes every two days.
At each time point the culture medium was removed and the adherent cells were scraped from the dish into 1 ml of cold PBS. The solution was centrifuged at 3000 rpm for 5 minutes. The cell pellet was lysed in 1 ml of cell extraction buffer provided with the activity assay kit (TransAm NFκB p65 Transcription Factor Assay Kit, Active Motif, Carlsbad, Calif.) on ice for 30 minutes, with vortexing every 10 minutes. The extract was centrifuged at 13,000 rpm for 10 minutes at 4° C. and the supernatant was used for activity assays following the kit protocol. In addition to the activity assay, the ELISA for total NFκB p65 subunit protein was completed simultaneously using aliquots of the same supernatants. ELISA values were used to standardize the activity values to correct for differences in protein concentration in each sample. […]

NFκB p65 subunit [2] = assay: Nuclear NFκB p65 protein level ELISA in HCET nuclear fractions; assay type: cell-based, human; conditions: TNF-α 10 ng/ml, Tβ4 1 μg/ml, 30 minutes, P=0.0066
Method: HCET were cultured until approximately 80% confluent. […] Cells maintained in culture medium only, or Tβ4 only were used as controls. The culture medium was removed and the adherent cells were scraped from the dish into 1 ml of cold PBS. The solution was centrifuged at 3000 rpm for 5 minutes. The cell pellet was resuspended in 0.5 ml hypotonic buffer (20 mM Tris-HCl, pH 7.4, 10 mM NaCl, 3 mM MgCl2) and incubated on ice for 15 minutes. 25 μl of 10% NP-40 was added with vortexing. The homogenate was centrifuged for 10 minutes at 3000 rpm at 4° C. The pellet was resuspended in 100 μl of the cell extraction buffer and incubated for 30 minutes on ice with vortexing every 10 minutes. The homogenate was centrifuged at 14,000 rpm for 30 minutes at 4° C. The resulting supernatant was used for the NFκB total p65 subunit ELISA. A representative analysis is presented as NFκB protein (pg/ml)±SEM. Statistical analysis was performed using the unpaired Student's t-test with significance set at P<0.05.
Nuclear translocation is an essential downstream event in NFκB mediated gene transcription. […] HCET were treated for 30 minutes and the amount of NFκB protein in nuclear fractions was measured by ELISA. Only activated, phosphorylated NFκB is capable of translocating to the nucleus.

NFκB p65 subunit [3] = assay: Nuclear translocation of NFκB p65 by immunofluorescence microscopy in HCET; assay type: cell-based, human; conditions: Tβ4 1 μg/ml during TNF-α stimulation, 30 minutes
Method: HCET were cultured on collagen-coated 4 chambered glass microscope slides to approximately 80% confluence. […] Cells maintained in culture medium only, or Tβ4 only were used as controls. Cells were fixed in 3.7% glutaraldehyde/PBS for 10 minutes then washed in PBS. Cells were permeabilized in 1% Triton X-100 for 5 minutes and washed again. The cells were then incubated with rabbit polyclonal antibodies specific for the N-terminus of human p65 NFκB (Santa Cruz Biotechnologies, Santa Cruz, Calif.) followed by FITC-conjugated goat anti-rabbit secondary antibodies. Digitized images were captured and stored (Axiophot fluorescence microscopy and imaging system, Carl Zeiss Medicine, Inc., Thornwood, N.Y.).
The nuclear translocation of NFκB was also examined morphologically in HCET by immunofluoresence microscopy using an antibody specific for the p65 subunit.

NFκB [4] = assay: NFκB activity assay (binding to consensus oligonucleotides) in TNF-α stimulated HCET; assay type: cell-based, human; conditions: TNF-α 10 ng/ml
Method: At each time point the culture medium was removed and the adherent cells were scraped from the dish into 1 ml of cold PBS. The solution was centrifuged at 3000 rpm for 5 minutes. The cell pellet was lysed in 1 ml of cell extraction buffer provided with the activity assay kit (TransAm NFκB p65 Transcription Factor Assay Kit, Active Motif, Carlsbad, Calif.) on ice for 30 minutes, with vortexing every 10 minutes. The extract was centrifuged at 13,000 rpm for 10 minutes at 4° C. and the supernatant was used for activity assays following the kit protocol. In addition to the activity assay, the ELISA for total NFκB p65 subunit protein was completed simultaneously using aliquots of the same supernatants. ELISA values were used to standardize the activity values to correct for differences in protein concentration in each sample. The assays were repeated three times (n=3) and the results of a representative assay are reported as NFκB activity in arbitrary units±SEM. Statistical analysis was performed using the unpaired Student's t-test with significance set at P<0.05.
We hypothesized that Tβ4 functions as a transcription factor mediator in addition to its other known cellular functions. […] Transcription factor activity was analyzed calorimetrically using an assay that measured the ability of NFκB to bind to oligonucleotides containing consensus κB binding motifs immobilized to a plastic substrate. […]

NFκB p65 subunit [5] = assay: NFκB p65 phosphorylation assay (CASE ELISA, phosphoserine 276) in HCET; assay type: cell-based, human; conditions: 30 minutes
Method: HCET were cultured in wells of a 96-well plate until approximately 80% confluent. […] At each time point adherent cells were fixed in cell fixing buffer containing 4% glutaraldehyde according to the phosphorylation assay kit protocol (CASE, cellular activation of signaling ELISA for phosphoserine 276 of NFκB p65 subunit, SuperArray, Frederick, Md.). Fixed cells were then processed using phospho-specific (phosphoserine 276 p65) or pan-protein specific (nonphosphorylated p65) primary antibodies and HRP-conjugated secondary antibodies. Following incubation with developing and stop solutions provided with the kit, individual well absorbance was read at 450 nm. Variation in cell number in individual wells was corrected by assaying the OD 540 nm of stained cells following completion of the phosphorylation assay and performing numerical correction of the OD 450 nm values. The assay was repeated twice (n=8) and a representative result is presented as relative amounts of phosphorylated and nonphosphorylated NFκB in arbitrary units±SEM. Statistical analysis was performed using the unpaired Student's t-test with significance set at P<0.05.
In addition to nuclear translocation, the p65 subunit of NFκB must undergo phosphorylation on several serine residues in order to be activated. […]

## Thymosin beta 4 [Tβ4]
IL-8; HGF-1 fibroblasts, TNFα 20 ng/ml, 0.01 ug/ml Tβ4, 24 hours, p=0.0012
  inhibition of TNFα-stimulated IL-8 secretion: most inhibition
IL-8; HGF-1 fibroblasts, TNFα 20 ng/ml, several concentrations of Tβ4, 24 hours, FIG. 3
  IL-8 secretion, dose response: inhibited IL-8 secretion in a dose-dependent manner
IL-8; 1 ug/ml Tβ4, 24 hours, FIG. 1, p=0.0004
  secreted IL-8 versus fibroblasts not treated with Tβ4: significantly lower levels of secreted IL-8
IL-8; 5 ug/ml Tβ4, 24 hours, FIG. 1, p=0.0016
  secreted IL-8 versus fibroblasts not treated with Tβ4: significantly lower levels of secreted IL-8
IL-8; Tβ4 0.001-5 ug/ml (all levels), 24 hours
  secreted IL-8 versus fibroblasts not treated with Tβ4: lower levels of secreted IL-8
Gingival fibroblasts
  apoptotic cell death induced by TNF-α: significantly inhibits apoptotic cell death
NFκB [1]
  NFκB activity after TNF-α stimulation: decreased NFκB activity
NFκB p65 subunit [2]
  NFκB protein in nuclear fractions: significant decrease
NFκB p65 subunit [3]
  NFκB p65 localization (fluorescence pattern): mainly perinuclear
NFκB [4]; Tβ4 1 μg/ml, 5, 10, 15 and 20 minutes of stimulation
  NFκB activity versus cells stimulated with TNF-α: increased NFκB activity
NFκB [4]; Tβ4 1 μg/ml, 30 and 60 minutes
  TNF-α induced activation of NFκB: significantly suppressed
NFκB p65 subunit [5]; TNF-α 10 ng/ml, Tβ4 1 μg/ml
  reduction of NFκB phosphorylation levels: 45%
NFκB p65 subunit [5]; Tβ4 present during TNF-α stimulation, 100% with TNF-α only
  proportion of phosphorylated NFκB: 55%
